Holding throughout (type): cell-based
The subject of one experiment is Ba/F3-EGFR-WT. Put plainly: Ba/F3 cell survival assay, WT EGFR.
A further experiment relates to Ba/F3-EGFR-L858R. The experiment can be described thus: Ba/F3 cell survival assay, EGFR L858R. Conditions: 48 h, read-out: BA/F3 (EGFR L858R) IC50. As to the method: (§1) 293T cells from ATCC were transfected with pBABEpuro expression constructs for mutant EGFR (V769_D770insASV, D770_N771insNPG, N771_P772insH, H773_V774insNPH, E746_A750del, L858R, D770_N771 insSVD C797S, E746_A750del C797S, L858R C797S, L861Q) or mutant ERBB2 (A775_G776insYVMA) and pCL-Eco packaging vector using Fugene-6 transfection reagent from Promega. Plates were incubated at 37° C. for 48 h. Retrovirus was harvested by filtering the media supernatant through a 0.45 μm filter.
(§2) Ba/F3 cells purchased from DSMZ were grown in RPMI+10% FBS+10 ng/mL IL-3 and infected with filtered retroviral supernatant at a 1:2 dilution. Polybrene was added to a concentration of 8 μg/mL, plates were spun for 90 min, and incubated overnight at 37° C. 2 μg/mL puromycin was added to the infected cells 24 h after infection and cells were continually grown in the presence of puromycin and 10 ng/mL IL-3. Following stably expressing Ba/F3 cell lines were generated: Ba/F3-EGFR-V769_D770insASV, Ba/F3-EGFR-D770_N771insNPG, Ba/F3-EGFR-N771_P772insH, Ba/F3-EG, Ba/F3-EGFR-H773_V774insNPH, Ba/F3-EGFR-E746_A750del, Ba/F3-EGFR-L858R, Ba/F3-EGFR-D770_N771 insSVD C797S, Ba/F3-EGFR-E746_A750del C797S, Ba/F3-EGFR-L858R C797S, Ba/F3-EGFR L861Q and Ba/F3-ERBB2-A775_G776insYVMA (Ba/F3—vector-control).
(§3) For cell survival assays, Ba/F3 cells were grown to a density of 1-2 million cells per mL, spun down and resuspended in media without IL-3, and replated at a concentration 200,000-500,000 cells per mL. The cells ectopically expressing WT EGFR plated with 10 ng/mL Millipore Culture grade EGF and Ba/F3 cells containing mutant EGFR or Mutant ERBB2 were cultivated without EGF. The cells ectopically expressing pBABEpuro empty vector were plated with 10 ng/mL IL-3.
(§4) 2 days later, cells were plated in 50 μL in a 384 well plate at a concentration of 4000 cells per well for cells assayed in the absence of IL-3 and 2000 cells per well for cells assayed in the presence of IL-3. 100 nL of compound was added to each well using a 100 nL pin head, and plates were incubated at 37° C. for 48 h.
(§5) Cell viability was measured by adding 20 μL of Cell Titer-Glo Luminescent Cell Viability Reagent diluted 1:3 in PBS. Plates were sealed with Perkin Elmer Top-Seal, inverted several times to mix, and immediately centrifuged at 1000 rpm for 2 min. Plates were incubated in low light conditions for 8-10 min and luminescence was measured.

The next experiment has as its system Ba/F3-EGFR L861Q. Put plainly: Ba/F3 cell survival assay, EGFR L861Q. The conditions noted are these: 48 h, read-out: BA/F3 (EGFR L861Q) IC50. As to the method: as §1, §2, §3, §4, §5
Another experiment relates to Ba/F3-EGFR-L858R C797S. The experiment can be described thus: Ba/F3 cell survival assay, EGFR L858R C797S. Conditions: 48 h, read-out: BA/F3 (EGFR L858R C797S) IC50. The protocol: as §1, §2, §3, §4, §5
The subject of experiment [1] is Ba/F3-ERBB2-A775_G776insYVMA. Put plainly: Ba/F3 cell survival assay, ERBB2 A775_G776insYVMA. The conditions noted are these: Mus musculus, BaF3, 48 h, read-out: BA/F3 (ERBB2 A775_G776 insYVMA) IC50. As to the method:
as §1, §2, §3, §4, §5

A further experiment relates to PC9 cells. Put plainly: PC9 cell proliferation assay (EGFRex19del). Conditions: Homo sapiens, PC-9, 72 h, read-out: PC9 IC50. The protocol:
(§6) PC9 cells were purchased from ATCC. 400 PC9 cells per well were seeded in growth medium (DMEM, 10% FCS) in a 384-well plate (CORNING #3571). Seed reference plate for time zero determination on the same day. All plates were incubated overnight at 37° C. After 24 hours, test compound were added in 7-step dilution using HP Compound printer and incubated at 37° C. for 72 h. After 3 days, 30 μL/well CTG solution (Promega Cell Titer Glo solution; catalog #G755B and G756B) were added to each well, incubated for 30 minutes and the plate were read on PheraStar. Proliferation is calculated after subtracting time zero luminescence values from day 4 values and comparing to untreated wells. The IC50 values were determined using the four parameter fit.

For the next experiment, the system named is HCC-827 cells. Put plainly: HCC-827 cell proliferation assay (EGFRex19del). Conditions: Homo sapiens, HCC827, 72 h, read-out: HCC-827 IC50. As to the method: as §6, with “HCC-827 cells” for “PC9 cells”, “[…]” for “400 PC9”, “medium (RPMI1640,” for “medium (DMEM,”, “wells.” for “wells. The IC50 values were determined using the four parameter fit.”
The IC50 values were determined using the four parameter fit.

[2] abbreviates: read-out: BA/F3 (wild type) IC50, cell viability, Cell Titer-Glo, 48 h, with 10 ng/mL EGF, without IL-3.

Each structure is given as a SMILES string. pIC50: −log10 of the molar value. Read-outs that look alike come from different tables or passages of the source.

Consider `COc1c(Cl)cccc1Nc1c(-c2ccncc2OC[C@@H]2CCO2)[nH]c2c1C(=O)NCC2` [Example 2, 3-(3-chlor-2-methoxyanilino)-2-{3-[(2S)-oxetan-2-ylmethoxy]pyridin-4-yl}-1,5,6,7-tetrahydro-4H-pyrrolo[3,2-c]pyridin-4-on], for which the pIC50 is 6.55 in the experiment on Ba/F3-EGFR-WT (Mus musculus, BaF3, 48 h, read-out: BA/F3 (wild type) IC50, cell viability, Cell Titer-Glo, 48 h, with 10 ng/mL EGF, without IL-3); 8.92 in the experiment on Ba/F3-EGFR-L858R; 7.77 with Ba/F3-EGFR L861Q; 8.82 in the experiment with Ba/F3-EGFR-L858R C797S; 7.94 in experiment [1]; 8.64 with PC9 cells. The pIC50 in the experiment on HCC-827 cells was > 8.52.
Regarding `COc1c(Cl)cccc1Nc1c(-c2ccncc2OCCC2CCO2)[nH]c2c1C(=O)NCC2` (single isomer, unassigned; (-)) [Example 26, (−)-3-(3-chloro-2-methoxyanilino)-2-{3-[2-(oxetan-2-yl)ethoxy]pyridin-4-yl}-1,5,6,7-tetrahydro-4H-pyrrolo[3,2-c]pyridin-4-one], the pIC50 in the experiment with Ba/F3-EGFR-WT (setting [2]) was 6.69; with Ba/F3-EGFR-L858R, 9.09; with Ba/F3-EGFR L861Q, 8.19; in the experiment with Ba/F3-EGFR-L858R C797S, 9.00; in experiment [1], 8.08; in the experiment on PC9 cells it was 8.85. Further, in the experiment on HCC-827 cells, the pIC50 was > 8.52.
In the case of `COc1c(Cl)cccc1Nc1c(-c2ccncc2OCC2(C)CCO2)[nH]c2c1C(=O)NCC2` (single isomer, unassigned; (+)) [Example 48, (+)-3-(3-chloro-2-methoxyanilino)-2-{3-[(2-methyloxetan-2-yl)methoxy]pyridin-4-yl}-1,5,6,7-tetrahydro-4H-pyrrolo[3,2-c]pyridin-4-one], the pIC50 with Ba/F3-EGFR-WT (setting [2]) was 6.46; in the experiment with Ba/F3-EGFR-L858R, 8.89; with Ba/F3-EGFR L861Q it was 7.83; with Ba/F3-EGFR-L858R C797S it was 8.89; in experiment [1], 7.89; in the experiment on PC9 cells, 8.68. For the same compound, the pIC50 in the experiment with HCC-827 cells was > 8.52.
Regarding `COc1c(Cl)cccc1Nc1c(-c2ccncc2OCC2OCC2(C)C)[nH]c2c1C(=O)NCC2` (single isomer, unassigned; (+)) [Example 50, (+)-3-(3-chloro-2-methoxyanilino)-2-{3-[(3,3-dimethyloxetan-2-yl)methoxy]pyridin-4-yl}-1,5,6,7-tetrahydro-4H-pyrrolo[3,2-c]pyridin-4-one], the pIC50 in the experiment with Ba/F3-EGFR-WT (setting [2]) was 6.46; in the experiment on Ba/F3-EGFR-L858R, 8.79; in the experiment with Ba/F3-EGFR L861Q, 7.67; in the experiment on Ba/F3-EGFR-L858R C797S, 8.53; in experiment [1], 7.91; in the experiment with PC9 cells it was 8.64. The pIC50 in the experiment with HCC-827 cells is > 8.52.

Source of the values: patent US20240307362A1 (priority 2019, published 2024).
